ChEMBL document CHEMBL1157539, “Thousands of chemical starting points for antimalarial lead identification” (Nature, 2010)

Tested on: Plasmodium falciparum
Assay: GSK_TCMDC: Inhibition of Plasmodium falciparum 3D7 in whole erythrocytes, using parasite LDH activity as an index of growth.
Assay type: functional, organism-based
Settings: Plasmodium falciparum, 3D7

Row | Compound | XC50 [nM]
1 | CCN(CC)CCN(CCCc1ccc(-c2ccc(C(F)(F)F)cc2)cc1)C(=O)Cn1c(CCc2cccc(F)c2F)nc(=O)c2ccccc21 | 767
2 | CC(C)N1CCC(N(Cc2ccc(-c3ccc(C(F)(F)F)cc3)cc2)C(=O)CCCn2c(CCc3cccc(F)c3F)nc(=O)c3ccccc32)CC1 | 972
3 | O=C(/C=C/c1ccc(Cl)c(Cl)c1)NCCCCCN1CCN(C(=O)Nc2ccc(Cl)c(C(F)(F)F)c2)CC1 | 816
4 | CCc1cc2c(N)nc(N)nc2nc1-c1ccccc1 | 946
5 | COc1ccc2c(NCCc3ccccc3)cc(-c3ccccc3)nc2c1 | 987
6 | Cc1ccnc2nc(C(=O)Nc3cc(Cl)ccc3N3CCOCC3)nn12 | 1240
7 | O=S(=O)(NCCN1CCCC1)c1cccc(-c2cccc(CNCc3ccccc3)c2)c1 | 811
8 | CC(C)n1ncc2c(C(=O)N3CCCC4CCCCC43)cc(C3CC3)nc21 (configuration not stated) | 676
9 | CN1CCC(C(=O)N(Cc2ccc(-c3ccc(CNCCc4ccc(S(C)(=O)=O)cc4)cn3)cc2)C2CCN(Cc3ccccc3)CC2)CC1 | 673
10 | CN(C)CC(O)C(c1ccccc1)c1ccc(Cl)cc1 (configuration not stated) | 48.4
11 | CN(C)CCC(=O)c1ccccc1 | 335
12 | Cc1ccccc1N1CCN(c2ccc(C(=O)Nc3ccccc3)cn2)CC1 | 587
13 | NC[C@H](CC1CCCCC1)NC(=O)c1ccc(-c2ccnc3[nH]ccc23)s1 | 950
14 | Cc1cccc2nc(-c3ccc(-c4ccc(C(=O)NCCN5CCCC5)cc4)s3)[nH]c12 | 901
15 | CCOc1c(CCNCCCCNCCc2ccc3ccccc3c2OCC)ccc2ccccc12 | 596
16 | CN(C)Cc1ccc(O)c(-c2ccc(C(C)(C)C)cc2)n1 | 1080
17 | Cc1c(NCCCNCc2cc(Cl)cc(Cl)c2Cl)[nH]c2ccccc2c1=O | 314
18 | COc1ccc(N2CCN(CCCN3CCN(C(=O)c4ccc(/C=C/c5ccc(Cl)c(Cl)c5)cc4)CC3)CC2)c(OC)c1 | 907
19 | Cc1cccc(CNc2nc(C)cc(NCCC(=O)NCCOc3ccccc3)n2)c1 | 871
20 | Cc1ccc(-n2nc(-c3ccccc3)c3cc(C(=O)NCCN)sc32)cc1 | 1370
21 | Cc1cccc2nc(-c3cccc(-c4ccc(NC(=O)c5c[nH]cn5)cc4)c3)[nH]c12 | 722
22 | Cc1cccc2nc(-c3ccc(-c4ccc(CN5CCN(CC6CCCN(C)C6)CC5)cc4)cc3)[nH]c12 (configuration not stated) | 144
23 | CCCOc1ccc(-c2nonc2NC(=O)c2ccccc2OC)cc1OCCC | 858

Row | Compound | XC50 [nM]
24 | CNCCN(C)C(=O)Oc1c(Br)c(C)nc(C)c1-c1ccc(Oc2ccc(OC(F)(F)F)cc2)cc1 | 109
25 | Cc1cc(C2CCN(CCCCNC(=O)c3ccc(-c4ccc(C(F)(F)F)cc4)cc3)CC2)c(C)cc1OCC#N | 1010
26 | O=c1cc(NCCCNCc2cc3c(Cl)cccc3s2)[nH]c2ccccc12 | 474
27 | Cc1ccccc1CNc1nccc(NCCC(=O)Nc2ccccc2)n1 | 892
28 | Clc1ccc(CNCC2CCN(CC3CCCCC3)CC2)cc1Cl | 1000
29 | CC(=O)Nc1ccc(OCCCCN(Cc2ccccc2C(F)(F)F)c2ccc(C(F)(F)F)c(C#N)c2)c(Cl)c1 | 545
30 | Cc1cccc(-c2nc(Nc3ccncc3)c3cc(N(C)C)ccc3n2)n1 | 710
31 | Clc1cnc2ccc3c(c2c1CCN1CCC(NCc2cc4c(cn2)OCCO4)CC1)OCCO3 | 718
32 | Cc1c(CC(=O)N(C)C2CCN(CCCCCNC(=O)/C=C/c3ccc(Cl)c(Cl)c3)CC2)sc2ccc(Cl)cc12 | 1160
33 | CC(C)(C)OC(=O)NCc1ccc(Nc2nnc(-c3cccc(C(=O)NCc4cc(C(F)(F)F)cc(C(F)(F)F)c4)c3)o2)cc1 | 865
34 | O=C(NCCCNc1ccc2ccccc2n1)c1cc2c(Cl)cc(Cl)cc2[nH]1 | 604
35 | Cc1ccccc1C1CCN(C2CCC(NC(=O)c3ccc4c(c3)-c3nocc3C(C)O4)CC2)CC1 (configuration not stated) | 1270
36 | CCCCN(CCCC)/C(=N/C(=N)NCc1ccc(Cl)c(Cl)c1)NCCCCCCN/C(=N\C(=N)NCc1ccc(Cl)c(Cl)c1)N(CCCC)CCCC | 399
37 | Cc1cc(C)cc(CC(=O)N2CCC(n3c(C)nc4ccc(C)cc43)CC2)c1 | 534
38 | COc1cc(NC(=O)c2sc(-c3ccc(Cl)cc3)cc2NC(=O)c2ccncc2)ccc1OCCN1CCCC1 | 31.5
39 | CCOC(=O)N[C@@H]1CN[C@@H](C#Cc2cc3c(Nc4ccc(OCc5cccc(F)c5)c(Cl)c4)ncnc3s2)C1 | 1080
40 | CC1CN(c2cc(=O)n(Cc3cccc(NC(=O)Nc4ccc(-c5ccccc5)cc4)c3)cn2)CC(C)N1 (configuration not stated) | 396
41 | Cc1nnc(N2C(=N)SC(=Cc3ccc(-c4ccc(OC(F)(F)F)cc4)o3)C2=O)s1 | 526
42 | COc1cc2c(cc1OC)C(C(=O)Nc1cc(OC)c(OC)c(OC)c1)C(c1ccc(SC)cc1)N(C)C2=O (configuration not stated) | 986
43 | c1cc(-c2cc3ccc(C4=NCCN4)cc3[nH]2)ccc1C1=NCCN1 | 224
44 | COc1cc(Cc2cnc(N)nc2N)cc(OCCCS(=O)(=O)O)c1OC | 1170
45 | CC(=O)c1cccc(Nc2nc3ccc(OCc4cc(Cl)cc(Cl)c4)c(C#N)c3[nH]2)c1 | 869
46 | CC(CN1CCN(C)CC1)C(=O)Nc1ccc(-c2ccc(-c3nc4cc(F)ccc4[nH]3)cc2)cc1 (configuration not stated) | 792

Row | Compound | XC50 [nM]
47 | O=C(Nc1ccc(Oc2ccccc2)cc1)N(Cc1ccc(-c2ccc(CN3CCNCC3)cc2)cc1)C1CCN(Cc2ccccc2)CC1 | 886
48 | COc1ccc2c(c1)c(C1CCN(CCCCNC(=O)c3ccc(-c4ccc(C(F)(F)F)cc4)cc3)CC1)cn2C(C)C | 729
49 | Clc1ncccc1-c1nc(NCCC(c2ccccc2)c2ccccc2)no1 | 1000
50 | O=C(c1ccc([N+](=O)[O-])o1)N1CCC(Cc2ccc(C(F)(F)F)cc2)CC1 | 166
51 | Cc1ccc(Nc2nc3cc(Nc4ccnc(Nc5ccc(CS(C)(=O)=O)cc5)n4)ccc3o2)cc1 | 765
52 | O=C(/C=C/c1ccc(Cl)c(Cl)c1)NCCCCCN1CCCN(C(=O)Nc2cc(F)cc(F)c2)CC1 | 768
53 | CC(C)CNCc1ccc(-c2cccc(CN(C(=O)Nc3ccccc3)C3CCN(Cc4ccccc4)CC3)c2)cc1 | 410
54 | CC(Cc1ccc(C(=O)N2CCN(C(=O)c3ccc(CC(C)NCCc4cccc(Cl)c4)cc3)CC2)cc1)NCCc1cccc(Cl)c1 (configuration not stated) | 677
55 | O=C(/C=C/c1ccc(Cl)c(Cl)c1)N1CCC(CNCc2cccc3cc[nH]c23)CC1 | 1220
56 | O=S(=O)(NCCN1CCCC1)c1cccc(-c2cccc(CNCc3ccc(F)cc3)c2)c1 | 848
57 | Oc1ccc(CNCCCCCCNCCc2ccc(Cl)cc2)cc1O | 989
58 | CCC(=Cc1cccc([N+](=O)[O-])c1)C(=O)NCC1CCN(c2nc3cc(OC)c(OC)cc3c(=N)[nH]2)CC1 | 236
59 | O=C(O)c1ccc2nc(-c3ccc(-c4ccccc4)cc3)n(C3CCN(Cc4ccc(-c5ncc[nH]5)cc4)CC3)c2c1 | 1730
60 | Cc1[nH]c(C)c(-c2ccc(-c3ccccc3Cl)nc2)c(=O)c1Cl | 217
61 | COc1cccc(CN2CCCC(CCC(=O)Nc3ccc(C(F)(F)F)cc3)C2)c1O (configuration not stated) | 747
62 | O=C(Nc1nccs1)c1cn(-c2ccccc2)nc1-c1ccc(Cl)s1 | 970
63 | CC(C)c1ccc(N2CCN(CCCCNC(=O)c3ccc(NC(=O)c4cc(Cl)cc(Cl)c4)cc3)CC2)cc1 | 156
64 | Fc1cccc(COc2ccc(Nc3ncnc4ccc(C#C[C@H]5CCCN5)cc34)cc2Cl)c1 | 882
65 | CC(C)(C)C1CCc2onc(C(=O)Nc3cc(Cl)ccc3O)c2C1 (configuration not stated) | 779
66 | CCN1CCCC(CNC(=O)/C(=C/C=C/c2cc3cc(Cl)c(Cl)cc3[nH]2)OC)C1 (configuration not stated) | 888
67 | N#Cc1ccc(N/C(=N\c2ccc(-c3ccccc3)cc2)NCCc2c[nH]c3ccccc23)c(O)c1 | 336
